# Values quoted from earlier work in patent publication US7799335B2, “Differential delivery of nitric oxide” (Boston Scientific Scimed, Inc., priority 2001, dated 2010).
# Experiments:
# platelet aggregation = details: compared with SNAP
# vasodilation = details: compared with SNAP
# [1] = system: human aortic vascular smooth muscle cells; details: exogenously and endogenously produced nitric oxide, 10^−5 to 10^−3 molar; Tanner et al. 2000
# endothelial cells = details: low levels of nitric oxide (SNP 10-50 uM); Rossig et al. 2000
Structure (SMILES),inhibition of platelet aggregation (platelet aggregation),effectiveness as vasodilator (vasodilation),effect on smooth muscle cell proliferation [1],effect on TNF-alpha induced apoptosis (endothelial cells)
"N[C@@H](CCC(=O)N[C@@H](CSN=O)C(=O)NCC(=O)O)C(=O)O [GSN70, S-nitrosoglutathione]",the opposite is true,less effective vasodilator than SNAP,–,–
[N]=O [nitric oxide],–,–,prevented smooth muscle cell proliferation by inducing G1 phase arrest,prevented TNF-alpha induced apoptosis in endothelial cells
